Consider 10 molecules from article PMC7966987, “Insights into the catalytic properties of the mitochondrial rhomboid protease PARL” (The Journal of Biological Chemistry, 2021).

The target in assay [1] is T1, PARLΔ77 (Homo sapiens, UniProt Q9H300).
T1 construct: GFP-hexahistidine (behind a TEV cleavage site) (C, cleaved yes); made in house; host or cells: Pichia pastoris
T1 sequence (Q9H300 78-379): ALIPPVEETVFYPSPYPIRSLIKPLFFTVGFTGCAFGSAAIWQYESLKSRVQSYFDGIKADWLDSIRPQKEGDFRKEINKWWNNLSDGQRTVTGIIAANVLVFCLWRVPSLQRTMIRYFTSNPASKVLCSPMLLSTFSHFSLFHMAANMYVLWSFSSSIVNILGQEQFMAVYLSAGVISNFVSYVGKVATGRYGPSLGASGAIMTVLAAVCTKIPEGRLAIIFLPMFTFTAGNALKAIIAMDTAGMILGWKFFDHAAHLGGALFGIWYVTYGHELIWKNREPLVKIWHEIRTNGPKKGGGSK
Nature of the assay: Multiplex substrate profiling by mass spectrometry (MSP-MS), PARLΔ77 in proteoliposomes. The format is biochemical. As to conditions: PARLΔ77 1 μM in PL containing PC, PE and CL, peptides 0.5 μM each, pH 7.0, without DDM, LC-MS/MS, quadruplicate; for FC_60min (fold change of cleavage product, Annotated_Sequence): 60 vs 0 min; for FC_240min (fold change of cleavage product, Annotated_Sequence): 240 vs 0 min. As for the experimental part: (§1) Multiplex substrate profiling by mass spectrometry (MSP-MS) assays was performed in quadruplicate. In total, 1 μM of PARLΔ77 was incubated with an equimolar mixture of 228 synthetic tetradecapeptides at a final concentration of 0.5 μM for each peptide in 50 mM Tris-HCl pH 7.0, 150 mM NaCl, 10% glycerol, with or without 0.1% DDM. The sequence of each peptide is listed in Supplementary Data File. These peptides have been validated as substrates for a wide variety of proteolytic enzymes (PMID 23023596, 24073241, 25944934) including bacterial rhomboid proteases (30705125). For each assay, 20 μl of the reaction mixture was removed after 0, 60, and 240 min of incubation. Enzyme activity was quenched by adding GuHCl (MP Biomedicals) to a final concentration of 6.4 M, and samples were immediately stored at –80 °C. All samples were desalted using C18 spin columns and dried by vacuum centrifugation.
(§2) Approximately 2 μg of peptides was injected into a Q-Exactive Mass Spectrometer (Thermo) equipped with an Ultimate 3000 HPLC. Peptides were separated by reverse-phase chromatography on a C18 column (1.7 μm bead size, 75 μm × 25 cm, 65 °C) at a flow rate of 300 nl/min using a 60-min linear gradient from 5% to 30% B, with solvent A: 0.1% formic acid in water and solvent B: 0.1% formic acid in acetonitrile. Survey scans were recorded over a 150–2000 m/z range (70,000 resolutions at 200 m/z, AGC target 3 × 10^6, 100 ms maximum). MS/MS was performed in data-dependent acquisition mode with HCD fragmentation (28 normalized collision energy) on the 12 most intense precursor ions (17,500 resolutions at 200 m/z, AGC target 1 × 10^5, 50 ms maximum, dynamic exclusion 20 s).
(§3) Data was processed using PEAKS 8.5 (Bioinformatics Solutions Inc). MS^2 data were searched against the 228 tetradecapeptide library sequences with decoy sequences in reverse order. A precursor tolerance of 20 ppm and 0.01 Da for MS^2 fragments was defined. No protease digestion and modification were specified. Data were filtered to 1% peptide-level false discovery rates with the target-decoy strategy. Peptides were quantified with label-free quantification and data are normalized by medians and filtered by 0.3 peptide quality. Missing and zero values are imputed with random normally distributed numbers in the range of the average of smallest 5% of the data ± SD. Cleaved sequences were defined as peptide products that increase by a fold change of >8 and q value <0.05 (by Student t test) between 0 min and 240 min. IceLogo software was used for visualization of amino-acid frequency surrounding the cleavage sites. Amino acids that were most frequently observed (above axis) and least frequently observed (below axis) from P4 to P4ʹ positions were illustrated. Norleucine (Nle) was represented as “n” in the reported profiles. Mass spectrometry data and searching results have been deposited in MassIVE with accession number, MSV000085295.

Assay [2] concerns the target T1, PARLΔ77. In words: Multiplex substrate profiling by mass spectrometry (MSP-MS), PARLΔ77 in DDM. The format is biochemical. As to conditions: PARLΔ77 1 μM, 0.1% DDM, peptides 0.5 μM each, LC-MS/MS, quadruplicate; for FC_60min (fold change of cleavage product, Annotated_Sequence): pH 7.0, 60 vs 0 min; for FC_240min (fold change of cleavage product, Annotated_Sequence): pH 7.0, 240 vs 0 min. As for the experimental part:
as §1, §2, §3

In another assay the test system is preferred substrates. As to conditions: preferred substrates, in DDM; cited from earlier work. As for the experimental part: The bacterial rhomboid proteases from Haemophilus influenzae (HiGlpG) and P. stuartii (AarA) cleave at a rate of roughly two per minute for their preferred substrates in DDM, while the E. coli rhomboid protease GlpG cleaves slowly in DDM, much like PARL, at a rate of approximately six per hour and with a rate of 2.5 min^−1 in PLs ([26], [34], [35]).

Consider “AETSIKVFMPYYGH [TDP91, synthetic tetradecapeptide of the 228-peptide library]”, for which, on PARLΔ77 [1], the “FC_60min (fold change of cleavage product, Annotated_Sequence)” value is 43.5042 and the “FC_240min (fold change of cleavage product, Annotated_Sequence)” value came to 295.878.

On to “AMTDRGWYLAIQAV [TDP15, synthetic tetradecapeptide of the 228-peptide library]”, for which, on PARLΔ77 [2] (TDP160: product INDFLVR.T), the “FC_60min (fold change of cleavage product, Annotated_Sequence)” value is listed as 247.32 and the “FC_240min (fold change of cleavage product, Annotated_Sequence)” value came to 689.515.

On to “GPKLTYDFWIQNLP [TDP89, synthetic tetradecapeptide of the 228-peptide library]”, for which, on PARLΔ77 [2] (TDP160: product INDFLVR.T), the “FC_60min (fold change of cleavage product, Annotated_Sequence)” value amounted to 270.23 and the “FC_240min (fold change of cleavage product, Annotated_Sequence)” value came out at 1077.04.

For “GQYPMFVKISTTHW [TDP96, synthetic tetradecapeptide of the 228-peptide library]”, on PARLΔ77 [1], the “FC_60min (fold change of cleavage product, Annotated_Sequence)” value was 35.4935 and the “FC_240min (fold change of cleavage product, Annotated_Sequence)” value came to 328.605.

For the molecule “INDFLVRTWKMPGL [TDP160, synthetic tetradecapeptide of the 228-peptide library]”, the “FC_60min (fold change of cleavage product, Annotated_Sequence)” value at PARLΔ77 [2] (TDP160: product INDFLVR.T) came out at 264.961; at PARLΔ77 [2] (product F.LVRTWKLPGL), 150.552. In addition, the “FC_240min (fold change of cleavage product, Annotated_Sequence)” value at PARLΔ77 [2] (TDP160: product INDFLVR.T) is 895.528; on PARLΔ77 [2] (product F.LVRTWKLPGL) it was 507.811.

Consider “MHSPWTMANFLRGP [TDP94, synthetic tetradecapeptide of the 228-peptide library]”, for which, at PARLΔ77 [2] (TDP160: product INDFLVR.T), the “FC_60min (fold change of cleavage product, Annotated_Sequence)” value came out at 682.585 and the “FC_240min (fold change of cleavage product, Annotated_Sequence)” value was determined as 2284.43. For the same molecule, on PARLΔ77 [1], the “FC_60min (fold change of cleavage product, Annotated_Sequence)” value was determined as 254.488 and the “FC_240min (fold change of cleavage product, Annotated_Sequence)” value was 1890.88.

With “NVDWTAPQLIEYLD [TDP138, synthetic tetradecapeptide of the 228-peptide library]”, at PARLΔ77 [1], the “FC_60min (fold change of cleavage product, Annotated_Sequence)” value stood at 42.87 and the “FC_240min (fold change of cleavage product, Annotated_Sequence)” value turned out to be 40.3813.

On to “QAVRPNGMYWHYLM [TDP216, synthetic tetradecapeptide of the 228-peptide library]”, for which, on PARLΔ77 [1], the “FC_60min (fold change of cleavage product, Annotated_Sequence)” value came to 43.2174 and the “FC_240min (fold change of cleavage product, Annotated_Sequence)” value is given as 200.338.

B1: AarA: bacterial rhomboid protease from P. stuartii (protein, UniProt P46116 1-281, looked up)
Rhomboid protease AarA: MAEQQNPFSIKSKARFSLGAIALTLTLVLLNIAVYFYQIVFASPLDSRESNLILFGANIYQLSLTGDWWRYPISMMLHSNGTHLAFNCLALFVIGIGCERAYGKFKLLAIYIISGIGAALFSAYWQYYEISNSDLWTDSTVYITIGVGASGAIMGIAAASVIYLIKVVINKPNPHPVIQRRQKYQLYNLIAMIALTLINGLQSGVDNAAHIGGAIIGALISIAYILVPHKLRVANLCITVIAASLLTMMIYLYSFSTNKHLLEEREFIYQEVYTELADANQ
Take B1: in the assay with preferred substrates, the cleavage rate entry is “roughly two”.

B2: HiGlpG: bacterial rhomboid protease from Haemophilus influenzae (protein, UniProt P44783 1-192, looked up)
Rhomboid protease GlpG: MKNFLAQQGKITLILTALCVLIYLAQQLGFEDDIMYLMHYPAYEEQDSEVWRYISHTLVHLSNLHILFNLSWFFIFGGMIERTFGSVKLLMLYVVASAITGYVQNYVSGPAFFGLSGVVYAVLGYVFIRDKLNHHLFDLPEGFFTMLLVGIALGFISPLFGVEMGNAAHISGLIVGLIWGFIDSKLRKNSLE
As to B2, the cleavage rate result with preferred substrates is listed as “roughly two”.
